Laboratory results: ChEMBL document CHEMBL4229436, “Synthesis and biological evaluation of Complex I inhibitor R419 and its derivatives as anticancer agents in HepG2 cells” (Bioorg Med Chem Lett, 2018)
pIC50: −log10 of the molar value. The source made the active and inactive calls. No cut-off for these calls is given here.

Key:
HepG2 [1] = assay: Cytotoxicity against human HepG2 cells after 72 hrs by MTT assay; format: functional, cell-based; conditions: HepG2, 72 h
Homo sapiens [2] = species on record: Homo sapiens; assay: Inhibition of NADH-ubiquinone oxidoreductase (unknown origin)
A549 = assay: Cytotoxicity against human A549 cells after 72 hrs by MTT assay; format: functional, cell-based; conditions: A549, 72 h
L02 = assay: Cytotoxicity against human L02 cells after 72 hrs by MTT assay; format: cell-based; conditions: L02, 72 h
[3] = target: AMP-activated protein kinase, AMPK (Homo sapiens) (UniProt P54646+O43741+P54619+Q9UGJ0+Q9Y478+Q13131+Q9UGI9); assay: Activation of AMPK in human HepG2 cells after 24 hrs by Western blot analysis; format: cell-based
HepG2 [4] = assay: Induction of intracellular ATP depletion in human HepG2 cells at 0.3 uM after 44 hrs by luminescence based spectrophotometric method; format: functional, cell-based
HepG2 [5] = assay: Induction of apoptosis in human HepG2 cells assessed as early apoptotic cells at 3 uM after 40 hrs by Annexin-V-FITC/propidium iodide staining based flow cytometry (reference value: 2.8%); format: functional
HepG2 [6] = assay: Induction of apoptosis in human HepG2 cells assessed as necrotic cells at 3 uM after 40 hrs by Annexin-V-FITC/propidium iodide staining based flow cytometry (reference value: 7%); format: functional
HepG2 [7] = assay: Induction of apoptosis in human HepG2 cells assessed as PARP cleavage at 0.1 to 30 uM after 24 hrs by Western blot analysis; format: functional, cell-based
HepG2 [8] = assay: Reduction in Bcl2 to bax ratio in human HepG2 cells at 0.1 to 30 uM after 24 hrs by Western blot analysis; format: functional, cell-based
HepG2 [9] = assay: Induction of apoptosis in human HepG2 cells assessed as late apoptotic cells at 3 uM after 40 hrs by Annexin-V-FITC/propidium iodide staining based flow cytometry (reference value: 7.6%); format: functional
HepG2 [10] = assay: Induction of intracellular ATP depletion in human HepG2 cells at 3 uM after 44 hrs by luminescence based spectrophotometric method; format: functional, cell-based
HepG2 [11] = assay: Induction of apoptosis in human HepG2 cells assessed as live cells at 0.3 uM after 40 hrs by Annexin-V-FITC/propidium iodide staining based flow cytometry (reference value: 82.6%); format: functional
HepG2 [12] = assay: Induction of apoptosis in human HepG2 cells assessed as necrotic cells at 0.3 uM after 40 hrs by Annexin-V-FITC/propidium iodide staining based flow cytometry (reference value: 7%); format: functional
HepG2 [13] = assay: Induction of apoptosis in human HepG2 cells assessed as late apoptotic cells at 0.3 uM after 40 hrs by Annexin-V-FITC/propidium iodide staining based flow cytometry (reference value: 7.6%); format: functional
Homo sapiens [14] = species on record: Homo sapiens; assay: Inhibition of NADH-ubiquinone oxidoreductase (unknown origin) at 50 uM
HepG2 [15] = assay: Induction of apoptosis in human HepG2 cells assessed as early apoptotic cells at 0.3 uM after 40 hrs by Annexin-V-FITC/propidium iodide staining based flow cytometry (reference value: 2.8%); format: functional
HepG2 [16] = assay: Induction of apoptosis in human HepG2 cells assessed as caspase-3 cleavage at 0.1 to 30 uM after 24 hrs by Western blot analysis; format: functional, cell-based
HepG2 [17] = assay: Induction of apoptosis in human HepG2 cells assessed as live cells at 3 uM after 40 hrs by Annexin-V-FITC/propidium iodide staining based flow cytometry (reference value: 82.6%); format: functional

With `N#Cc1ccc(CN2CCC(NC(=O)COc3ccc4c(=O)cc(-c5ccccc5)oc4c3)CC2)cc1` as the compound, how does the pIC50 (HepG2 [1]) read?
The pIC50 was 5.03.

With `O=C(COc1ccc2c(=O)cc(-c3ccccc3)oc2c1)N1CCN(Cc2ccccc2)CC1` as the compound, how does the pIC50 (HepG2 [1]) read?
Its pIC50 is less than 4.70.

With `CC(C)(Oc1ccc2c(=O)cc(-c3ccccc3)oc2c1)C(=O)NC1CCN(Cc2ccccc2)CC1` as the compound, how does the pIC50 (HepG2 [1]) read?
Its pIC50 is 4.85.

`COc1ccc(CN2CCC(NC(=O)C(C)(C)Oc3ccc4c(=O)cc(-c5ccccc5)oc4c3)CC2)cc1` was tested. Which pIC50 (HepG2 [1]) did it give?
The pIC50 was 5.06.

With `O=C(COc1ccc(-c2cc(=O)c3ccccc3o2)cc1)N1CCN(Cc2ccccc2)CC1` as the compound, how does the pIC50 (HepG2 [1]) read?
Its pIC50 is less than 4.70.

How did the pIC50 (HepG2 [1]) turn out when `O=C(COc1ccc2c(=O)cc(-c3ccccc3)oc2c1)NC1CCN(Cc2ccc(C(F)(F)F)cc2)CC1` was run?
The pIC50 was 5.14.

`O=C(COc1ccc2c(=O)cc(-c3ccccc3)oc2c1)NC1CCN(Cc2ccccc2)CC1` was tested. Which pIC50 (HepG2 [1]) did it give?
Its pIC50 is 4.78.

With `N#Cc1ccc(CN2CCC(NC(=O)COc3ccc4c(=O)c(-c5ccccc5)coc4c3)CC2)cc1` as the compound, how does the pIC50 (HepG2 [1]) read?
The pIC50 was less than 4.70.

`CC(C)(Oc1ccc2c(=O)cc(-c3ccccc3)oc2c1)C(=O)NC1CCN(Cc2ccc(C(F)(F)F)cc2)CC1` was tested. Which pIC50 (HepG2 [1]) did it give?
The pIC50 was less than 4.70.

Which results are given for `COc1ccc(C(=O)C2CCN(C(=O)c3ccc(C(=O)NC4CCN(Cc5ccc(C#N)cc5)CC4)cn3)CC2)cc1`?
pIC50 (HepG2 [1]): 5.28; inhibition (Homo sapiens [2]): Dose-dependent effect; pIC50 (A549): 4.71; pIC50 (L02): 4.59; Activity [3]: Active

With `COc1ccc(CN2CCC(NC(=O)C(C)(C)Oc3ccc(-c4cc(=O)c5ccccc5o4)cc3)CC2)cc1` as the compound, how does the Activity (HepG2 [4]) read?
Its Activity is “inactive”.

What about the pIC50 (HepG2 [1]) of the same compound?
Its pIC50 is 5.55.

What about the Activity (HepG2 [5]) of the same compound?
Its Activity is 0%.

And the Activity (HepG2 [6])?
Its Activity is 46.4%.

And the inhibition (Homo sapiens [2])?
The inhibition was “Dose-dependent effect”.

And the Activity (HepG2 [7])?
The Activity was “inactive”.

What about the Activity (HepG2 [8]) of the same compound?
Its Activity is “Active”.

And the Activity (HepG2 [9])?
The Activity was 0.2%.

And the Activity (HepG2 [10])?
Its Activity is “Active”.

And the pIC50 (A549)?
Its pIC50 is 4.40.

And the Activity (HepG2 [11])?
The Activity was 80.2%.

And the Activity (HepG2 [12])?
Its Activity is 11%.

What about the pIC50 (L02) of the same compound?
Its pIC50 is 4.75.

What about the Activity (HepG2 [13]) of the same compound?
Its Activity is 7.3%.

What about the inhibition (Homo sapiens [14]) of the same compound?
The inhibition was “Active”.

What about the Activity (HepG2 [15]) of the same compound?
Its Activity is 1.6%.

And the Activity (HepG2 [16])?
The Activity was “inactive”.

What about the Activity (HepG2 [17]) of the same compound?
Its Activity is 53.4%.

What about the Activity [3] of the same compound?
Its Activity is “Dose-dependent effect”.

With `COc1ccc(CN2CCC(NC(=O)COc3ccc(-c4cc(=O)c5ccccc5o4)cc3)CC2)cc1` as the compound, how does the pIC50 (HepG2 [1]) read?
The pIC50 was 5.17.

`O=C(COc1ccc(-c2cc(=O)c3ccccc3o2)cc1)NC1CCN(Cc2ccccc2)CC1` was tested. Which pIC50 (HepG2 [1]) did it give?
Its pIC50 is 4.81.

With `CC(C)(Oc1ccc(-c2cc(=O)c3ccccc3o2)cc1)C(=O)NC1CCN(Cc2ccccc2)CC1` as the compound, how does the pIC50 (HepG2 [1]) read?
The pIC50 was less than 4.70.

How did the pIC50 (HepG2 [1]) turn out when `O=C(COc1ccc2c(=O)c(-c3ccccc3)coc2c1)N1CCN(Cc2ccccc2)CC1` was run?
Its pIC50 is less than 4.70.

`O=C(COc1ccc2c(=O)c(-c3ccccc3)coc2c1)NC1CCN(Cc2ccccc2)CC1` was tested. Which pIC50 (HepG2 [1]) did it give?
Its pIC50 is less than 4.70.

`O=C(COc1ccc(-c2cc(=O)c3ccccc3o2)cc1)NC1CCN(C(=O)c2ccccc2)CC1` was tested. Which pIC50 (HepG2 [1]) did it give?
The pIC50 was less than 4.70.

How did the pIC50 (HepG2 [1]) turn out when `COc1ccc(CN2CCC(NC(=O)COc3ccc4c(=O)c(-c5ccccc5)coc4c3)CC2)cc1` was run?
Its pIC50 is less than 4.70.

With `O=C(COc1ccc2c(=O)cc(-c3ccccc3)oc2c1)NC1CCN(C(=O)c2ccccc2)CC1` as the compound, how does the pIC50 (HepG2 [1]) read?
Its pIC50 is less than 4.70.

With `N#Cc1ccc(CN2CCC(NC(=O)COc3ccc(-c4cc(=O)c5ccccc5o4)cc3)CC2)cc1` as the compound, how does the pIC50 (HepG2 [1]) read?
Its pIC50 is 5.17.

With `CC(C)(Oc1ccc2c(=O)c(-c3ccccc3)coc2c1)C(=O)NC1CCN(Cc2ccccc2)CC1` as the compound, how does the pIC50 (HepG2 [1]) read?
The pIC50 was less than 4.70.
